Consider one compound from US4558068A, “Spirobenzofuranones and their use in treating peptic ulcers” (Takeda Chemical Industries, Ltd., priority 1983, dated 1985).

In data set [1] the test system is stress ulcer. As to the kind of experiment: Stress ulcer inhibiting effect, water immersion method (Takagi and Okabe). It is filed as in vivo. The settings on record: rats, 50 mg/kg, i.p.; **: P < 0.05. The source says: The stress ulcer inhibiting effect of the drug was investigated in rats in accordance with the water immersion method described by K. Takagi and S. Okabe, Jap. J. Pharmacol. 18, 9, 1968.

For data set [2], the system named is ICR mice. Description: Acute oral toxicity, single administration, 7 days observation. It is filed as in vivo. The settings on record: 500 mg/kg orally once.

As to `O=C(O)C(O)c1ccc2c(c1)C(=O)C1(CC1)O2` (centres unmarked), the “% Inhibition (stress ulcer)” value in data set [1] came out at 56%. Also, in data set [2], the “death during observation period” value was “no death was found”.
